Reference: article PMC5751249, “Anti-Diabetic Effect of Organo-Chalcogen (Sulfur and Selenium) Zinc Complexes with Hydroxy-Pyrone Derivatives on Leptin-Deficient Type 2 Diabetes Model ob/ob Mice” (International Journal of Molecular Sciences, 2017)
Read-outs that look alike come from different tables or passages of the source.

Columns and labels:
[1] = test system: type 2 diabetic ob/ob mice; experiment: Daily oral treatment of ob/ob mice for 28 days: blood glucose, body weight, water intake; format: in vivo
Experimental: The anti-diabetic effects of both [Zn(hmpt)2] and [Zn(hmps)2] were examined in ob/ob mice. The ob/ob and +/+ mice were used as type 2 diabetic and normal (non-diabetic) mice, respectively. The ob/ob (10-week-old) and +/+ (10-week-old) mice received daily oral treatment of either Zn complexes dissolved in PEG-400 or PEG-400 only, respectively. The mice received oral treatments of [Zn(hmpt)2] or [Zn(hmps)2] at doses of 2.5–10 mg Zn/kg or 1.0–5.0 mg Zn/kg for 28 days, respectively. Blood glucose levels (BGL) were measured using a Glucocard (Arkray, Kyoto, Japan) just before treatment with the Zn complexes, and the doses were regulated based on the BGL. Over 28 days, BGL, body weight, food intake, and water intake were measured every day. The number of normal mice (+/+ mice), control mice (ob/ob mice), [Zn(hmpt)2]-treated, and [Zn(hmps)2]-treated mice was 6, 8, 8, and 8 in the initial animal experiments, respectively. This was modified to 6, 6, 7, and 8 after the end of experiments as two control mice died naturally by the end of experiments, and one [Zn(hmpt)2]-treated mouse died from an accident during the oral glucose tolerance test.

[2] = test system: type 2 diabetic ob/ob mice; experiment: Histopathology and morphometric analysis of pancreas and liver (HE staining); format: in vivo; conditions: 14-week-old mice
Experimental: Excised pancreas and liver from 14-week-old mice were immediately fixed in 10% buffered formalin for a week, sectioned at a thickness of 3 μm, and stained with HE for histopathological examination. HE-stained tissue sections were scanned using a Moticam T2 (Shimadzu Co., Kyoto, Japan) to prepare digital images. Both pancreatic islet area and glycogen and fat deposition areas were calculated with the dedicated image processing software WinROOF (Mitani Corp., Tokyo, Japan).

[3] = test system: type 2 diabetic ob/ob mice; format: in vivo
Experimental: (§1) After OGTT, HbA1c levels were measured in blood obtained from the mouse tail vein using an immunoassay with a DCA 2000 analyzer (Bayer-Sankyo Co., Ltd., Tokyo, Japan). The mice were subjected to a 12-h fast and blood samples were collected from the orbital vein or postcaval vein under isoflurane anesthesia using heparinized tools. Collected samples were then centrifuged at 650× g for 10 min at 4 °C, and the resultant plasma samples were used to analyze various biochemical parameters. The levels of AST, ALT, BUN, TG, T-CHO, and ALP in plasma samples were determined using a Fuji Dry Chem system. The plasma levels of insulin and adiponectin were determined using an ultra-sensitive Mouse Insulin ELISA Kit (Morinaga Institute of Biological Science, Inc., Kanagawa, Japan) and an adiponectin immunoassay kit (R&D Systems Inc., Minneapolis, MN, USA), respectively. After collecting the blood samples, mice were subjected to dissection under isoflurane anesthesia, and the resultant tissue samples were washed in saline. Each of the samples was dehydrated for a week in desiccators, weighed, and then heated in 5% HNO3 (5 mL) for 5 h at 110 °C in a closed system. The resultant solution was centrifuged at 1250× g for 15 min, and the supernatant was diluted using 5% HNO3. Both Zn and Se concentrations in organs were determined with an ICP-MS Agilent 7700x/Mass Hunter instrument (Agilent Technologies Inc., Santa Clara, CA, USA). The Zn and Se concentrations in each sample were calculated using linear regression of the standard curves prepared from standard solutions of the respective trace elements.

[4] = test system: Isolated male Wistar rat epididymal adipocytes; experiment: Glucose uptake into adipocytes (in vitro insulin-mimetic activity); format: cell-based; conditions: 20 μM Zn complex, means ± SDs, three runs
Experimental: The in vitro insulin-mimetic activities of Zn complexes were determined by the inhibition of FFA release from adipocytes and increase of glucose uptake into adipocytes. Isolated male Wistar rat epididymal adipocytes (1.0 × 10^6 cells/mL) were prepared and pre-incubated separately with various concentrations of the different Zn complexes in 5 mM glucose in Krebs-Ringer bicarbonate buffer (120 mM NaCl, 1.3 mM CaCl2, 1.2 mM MgSO4, 4.8 mM KCl, 1.2 mM KH2PO4, 24 mM NaHCO3, pH 7.4) containing 2% BSA, with shaking at 100 cycles/min for 30 min at 37 °C. Adrenaline (15 μL, 0.2 mM) was then added to the mixtures, and the resultant solutions were then incubated for 3 h at 37 °C. The reaction mixture was subsequently centrifuged at 650× g for 10 min at 4 °C. FFA levels in the extracellular solutions were determined using an FFA measuring kit (NEFA C-test Wako) and the IC50 value, which is the 50% inhibitory concentration of FFA-release in each complex, was calculated. Glucose concentrations in the solutions with 20 μM Zn complexes were determined using a Fuji Dry Chem system (Fuji Medical Co., Tokyo, Japan) and then the glucose uptake quantities/(1.0 × 10^6 cells) in the 20 μM Zn complexes were calculated.

[5] = Organ distribution of Zn and Se by ICP-MS after 28 days oral treatment; format: in vivo, mice
Experimental: as §1

[6] = test system: type 2 diabetic ob/ob mice; experiment: Oral glucose tolerance test (OGTT) after 28 days treatment; format: in vivo
Experimental: After treatment with [Zn(hmpt)2] or [Zn(hmps)2] for 28 days, OGTTs were performed. The ob/ob mice and +/+ mice were fasted for 12-h and glucose (1 g/kg body weight) was given orally. Blood samples were obtained from the tail vein at 0, 15, 30, 45, 60, 90, and 120 min after glucose administration. Blood glucose concentrations were measured using a Glucocard.

[7] = test system: type 2 diabetic ob/ob mice; experiment: Triglyceride and glycogen contents in the liver; format: in vivo; conditions: ob/ob mice after 28 days oral treatment
Experimental: Lipids in the liver were extracted according to modified Folch method. TG in the extracted lipids was detected using the triglyceride E test wako (Wako Pure Chemicals Co., Osaka, Japan). Glycogen in the liver was extracted with a strong base (30% KOH aq). Then, ethanol precipitation methods (using 95% ethanol and saturated Na2SO4), hydrolysis, and neutralization (with 2.4 M HCl aq and 0.8 M NaOH aq) of the glycogen extracts were performed, resulting in degradation to glucose solution. To detect the glucose levels in the solution using the glucose CII test wako (Wako Pure Chemicals Co., Osaka, Japan), glycogen levels in the liver were estimated. Because the liver sample of normal mice was used up during TG detection and ICP-MS analysis, glycogen content in the liver could not be detected.

[8] = test system: Isolated male Wistar rat epididymal adipocytes; design: method as in PMID 29843022; conditions: 20 μM Zn complex, means ± SDs, three runs; cited from earlier work
[9] = test system: Isolated male Wistar rat epididymal adipocytes; design: method as in PMID 29843022; conditions: adrenaline-stimulated, means ± SDs, three runs, read-out: IC50 of free fatty acid release; cited from earlier work

Compound: Cc1occc(=S)c1[O-].Cc1occc(=S)c1[O-].[Zn+2] [[Zn(hmpt)2], bis(3-hydroxy-2-methyl-4(H)-pyran-4-thiono)Zn]
- Blood glucose level by the end of treatment ([1]; [Zn(hmpt)2] 2.5–10 mg Zn/kg, [Zn(hmps)2] 1.0–5.0 mg Zn/kg): approximately 200 mg/dL
- Water intake on the final day ([1]; control 12.6 ± 1.6 g, p < 0.01 vs. control): 7.5 ± 2.5 g
- Body weight change during treatment ([1]; loss seen day 22 to 25, recovered after dose reduction): body weight loss
- Pancreatic islet numbers per section ([2]; among normal, control and treated mice): not significantly changed
- Glycogen and fat deposition area ratio in the liver ([2]; between control and treated mice): no significant differences
- Pancreatic islet area ratio and size ([2]; compared with normal mice): significantly increased
- ALP (plasma) ([3]; mouse, in vivo, po): 360 ± 88 U/L
- ALT (plasma) ([3]; mouse, in vivo, po): 118 ± 68 U/L
- AST (plasma) ([3]; mouse, in vivo, po): 103 ± 25 U/L
- BUN (plasma) ([3]; mouse, in vivo, po): 23 ± 2 **^,## mg/dL
- Insulin (fasting plasma) ([3]; ob/ob mice after 28 days oral treatment, control 2.2 ± 1.0): 0.9 ± 0.3 ng/mL
- HbA1c ([3]; ob/ob mice after 28 days oral treatment, control 7.9 ± 0.8): 6.5 ± 0.7 **^,## %
- Adiponectin (plasma) ([3]; ob/ob mice after 28 days oral treatment, control 8.2 ± 1.1): 9.4 ± 0.8 µg/mL
- TG (plasma) ([3]; ob/ob mice after 28 days oral treatment, control 83 ± 16): 76 ± 25 mg/dL
- T-CHO (plasma) ([3]; ob/ob mice after 28 days oral treatment, control 195 ± 16): 189 ± 42 mg/dL
- Glucose Uptake [4]: 79 ± 26 µg/10^6 Cells
- Se concentration, kidney ([5]; dry tissue, ob/ob mice after 28 days oral treatment, control 6.4 ± 0.2): 5.8 ± 0.5 µg/g
- Zn concentration, kidney ([5]; dry tissue, ob/ob mice after 28 days oral treatment, control 67 ± 3): 73 ± 4 µg/g
- Δ[Zn], bone ([5]; mouse, in vivo, po): 517 nmol/g
- Δ[Zn], kidney ([5]; mouse, in vivo, po): 86 nmol/g
- Δ[Zn], liver ([5]; mouse, in vivo, po): 453 nmol/g
- Δ[Zn], pancreas ([5]; mouse, in vivo, po): 302 nmol/g
- Δ[Zn], plasma ([5]; mouse, in vivo, po): 3 nmol/g
- Area under the blood glucose concentration-time curve (AUC) in OGTT ([6]; 1 g glucose/kg oral, after 28 days treatment, compared with control mice): significantly decreased
- Fasting blood glucose level (0 min of OGTT) ([6]; ob/ob mice after 28 days oral treatment, 12-h fast, control 237 ± 52 mg/dL): 143 ± 75 mg/dL
- Glycogen content in the liver ([7]; control 0.08 ± 0.04): 0.03 ± 0.01 mg/g liver
- TG content in the liver ([7]; control 437 ± 139): 309 ± 134 mg/g liver

Compound: O.O.O.O.O.O.O.O=S(=O)([O-])[O-].[Zn+2] [ZnSO4, Zinc sulfate heptahydrate, reference compound]
- Glucose Uptake [8]: none
- IC50 [9]: 585 ± 305 µM
